Data as given in patent US10307388B2, “Compositions and methods for diagnosis and treatment of inflammation” (The United States of America as represented by the …, priority 2016, dated 2019).
“Also recorded” adds a separate entry of the source.

What was measured:
[1] = Total serum fatty acid concentrations in dolphins fed modified fish diet; conditions: for Total serum fatty acid concentration: case dolphins fed modified diet (n = 20); for concentration at 0 month / concentration at 1 month / concentration at 3 month / concentration at 6 month: bottlenose dolphin (Tursiops truncatus)
Procedure: This study examined the impact on inflammation by modifying fatty acid profiles through the diet in 20 MMP dolphins (“Group A dolphins”). The dolphins lived in netted enclosures within San Diego Bay. […] On blood collection days, Group A dolphins were fed one-third of their daily diet in the morning after their routine overnight fast and 2h postprandial, in-water, and trained blood samples were drawn (typically near 10:00 a.m.). An additional ten MMP dolphins (“Group B dolphins”) were maintained on the baseline capelin diet throughout the study period.
Two hour post-prandial samples were collected from Group A and Group B dolphins at baseline (month 0) and at three time points following the switch to the modified diet: months 1, 3, and 6. Dolphins were assessed for changes in serum fatty acid concentrations (total and various forms) and indices of inflammation, including erythrocyte sedimentation rate and alkaline phosphatase.
Blood was collected into BD Vacutainer serum separator tubes (for serum fatty acid profiles) or an evacuated tube containing EDTA (K3). Serum separator tubes were centrifuged at 3000 rpm for 10 minutes within 30 to 60 minutes of collection and chilled during processing until shipment. Serum was transferred to cryovials and stored at −80° C. until shipment on dry ice via overnight courier to the reference laboratories.
Total serum fatty acid profiles were performed by the Genetics Laboratories at the Kennedy Krieger Institute. […] Each run was required to pass clinical laboratory quality control before the data were released. […] Percent fatty acids in serum was used as a sturdier index to help reduce potential variability in serum among study dolphins.
Statistical analyses were conducted using World Programming System software (World Programming Ltd., Hampshire, United Kingdom). Significance was defined as a P value less than or equal to 0.05. Mean daily dietary intake of individual fatty acids were compared between pre-study and in-study diets for Group A and Group B dolphins using Wilcoxon rank sum tests. Indices of inflammation (erythrocyte sedimentation rate and alkaline phosphatase) and serum fatty acid concentrations (total and individual classes) from Month 1, 3, and 6 were compared with Month 0 for Group A and Group B dolphins using repeated measures ANOVA (MIXED model). […] Fatty acids that were independent predictors of erythrocyte sedimentation rate were then tested for linear associations with erythrocyte sedimentation rate using simple linear regressions. Fatty acids that were independent predictors of erythrocyte sedimentation rate and had inverse linear associations with these indices (defined as a P value less than or equal to 0.05 and an R^2 greater than or equal to 0.1), were characterized as fatty acids that independently predicted improved inflammation.

IL-6, IL-18, and MCP-1 = assay: Serum adipokines (cytokines) in high fat diet induced obese mice after daily oral C15:0; assay type: in vivo, C57BL/6J mice; conditions: obese HFD mice
Procedure: (§1) This study examined the impact of daily oral administration of synthetic pentadecanoic acid (C15:0) on inflammation in an obese mouse model. Twenty C57BL/6J mice were fed a high fat diet (HFD) (D12492, 60% kcals fat) for 8 weeks. Study mice were then divided into the following two groups of ten: vehicle controls and C15:0-treated (5 mg/kg body weight). The predicted therapeutic dose of 5 mg/kg was based upon modified diet studies in the dolphin model.

[2] = Tolerability, body weight and food intake in high fat diet obese mice given C15:0; assay type: in vivo
Procedure: as §1
Mice in the C15:0 treatment group tolerated the test article throughout the study. […] No changes were found in body weight, percent body weight change, or food intake when comparing the study groups (not shown).

[3] = Serum fatty acid form concentrations (complex lipidomics) in dolphins fed modified fish diet; assay type: in vivo; conditions: bottlenose dolphin (Tursiops truncatus), case dolphins fed modified diet (n = 20), read-out: Serum concentration, FFA (free fatty acid) form; for concentration at 0 month: Month 0 (baseline); for concentration at 1 month: Month 1; for concentration at 3 month: Month 3; for concentration at 6 month: Month 6
Procedure: Determination of serum fatty acid concentrations, including a variety of fatty acid classes, were performed by Metabolon, Inc. (Durham, N.C.) using complex lipidomics. […] The extracts were concentrated under nitrogen and reconstituted in 0.25 mL of dichloromethane:methanol (50:50) containing 10 mM ammonium acetate. The extracts were placed in vials for infusion-MS analyses, performed on a SelexION equipped Sciex 5500 QTRAP using both positive and negative mode electrospray. Each sample was subjected to 2 analyses, with IMS-MS conditions optimized for lipid classes monitored in each analysis. The 5500 QTRAP was operated in MRM mode to monitor the transitions for over 1,100 lipids from up to 14 lipid classes. Individual lipid species were quantified based on the ratio of signal intensity for target compounds to the signal intensity for an assigned internal standard of known concentration. Lipid class concentrations were calculated from the sum of all molecular species within a class, and fatty acid compositions were determined by calculating the proportion of individual fatty acids within each class.

[4] = test system: erythrocyte sedimentation rate; assay: Regression of serum fatty acid forms against erythrocyte sedimentation rate in dolphins on modified diet; assay type: in vivo, bottlenose dolphin (Tursiops truncatus); conditions: for Serum hexosylceramide concentration resulting in erythrocyte sedimentation rates lower than 15 mm/hr (threshold effect): FIGS. 3A-3B
[5] = Month 0 (baseline), 2h postprandial

CCCCCCCCCCCCCCC(=O)O [C15:0, pentadecanoic acid]
Total serum fatty acid concentration ([1]; Month 1, 2h postprandial): 94 ± 33 µM
Serum IL-6 (IL-6, IL-18, and MCP-1; 5 mg/kg daily gastric gavage, Day 84 (n = 10), vehicle control 60 ± 68): 19 ± 11
Serum MCP-1 (IL-6, IL-18, and MCP-1; 5 mg/kg daily gastric gavage, Day 84 (n = 10), vehicle control 83 ± 31): 52 ± 25
Serum IL-18 (IL-6, IL-18, and MCP-1; 5 mg/kg daily gastric gavage, Day 84 (n = 10), vehicle control 206 ± 84): 101 ± 86
Inflammation and adipokines (IL-6, IL-18, and MCP-1) compared to vehicle controls (IL-6, IL-18, and MCP-1; 5 mg/kg daily oral, 12 weeks, 5 mg/kg): lower; also recorded: reduced
Early mortalities in treated group ([2]; mouse, in vivo, 5 mg/kg): no early mortalities
Tolerability of the test article ([2]; mouse, in vivo, 5 mg/kg): tolerated
Body weight, percent body weight change, or food intake vs control group ([2]; obese HFD mice, 5 mg/kg daily gastric gavage, 12 weeks): No changes
concentration at 0 month ([3]; serum, oral): 3.8 ± 1.3 µM
concentration at 1 month ([3]; serum, oral): 4.2 ± 1.5 µM
concentration at 3 month ([3]; serum, oral): 3.6 ± 0.8 µM
concentration at 6 month ([3]; serum, oral): 3.8 ± 1.3 µM
Serum cholesterol ester concentration resulting in erythrocyte sedimentation rates lower than 15 mm/hr (threshold effect) ([4]; FIGS. 2A-2B): greater than 60 uM

CCCCCCCCCCCCCCCC(=O)O [C16:0, palmitic acid]
Total serum fatty acid concentration [1, 5]: 1445 ± 194 µM
Total serum fatty acid concentration ([1]; Month 1, 2h postprandial): 1372 ± 199 µM
Total serum fatty acid concentration ([1]; Month 3, 2h postprandial): 1505 ± 221 µM
Total serum fatty acid concentration ([1]; Month 6, 2h postprandial): 1450 ± 155 µM

CCCCCCCCCCCCCCCCC(=O)O [C17:0, heptadecanoic acid]
Total serum fatty acid concentration ([1]; Month 1, 2h postprandial): 82 ± 21 µM
Serum phosphatidylcholine concentration resulting in erythrocyte sedimentation rates lower than 15 mm/hr (threshold effect) ([4]; FIGS. 2A-2B): greater than 30 uM

CCCCCCCCCCCCCCCCCCCC(=O)O [C20:0, arachidic acid]
concentration at 0 month ([1]; in vivo): 94 ± 22 µM
concentration at 1 month ([1]; in vivo): 87 ± 17 µM
concentration at 3 month ([1]; in vivo): 98 ± 17 µM
concentration at 6 month ([1]; in vivo): 96 ± 15 µM
concentration at 0 month ([3]; in vivo): 6.6 ± 2.5 µM
concentration at 1 month ([3]; in vivo): 4.4 ± 1.4 µM
concentration at 3 month ([3]; in vivo): 5 ± 2.3 µM
concentration at 6 month ([3]; in vivo): 17 ± 10 µM
Serum hexosylceramide concentration resulting in erythrocyte sedimentation rates lower than 15 mm/hr (threshold effect) [4]: greater than 0.20 uM

CCCCCCCCCCCCCCCCCCCCCC(=O)O [C22:0, behenic acid]
Total serum fatty acid concentration [1, 5]: 23 ± 4 µM
Total serum fatty acid concentration ([1]; Month 1, 2h postprandial): 21 ± 3 µM
Total serum fatty acid concentration ([1]; Month 3, 2h postprandial): 23 ± 3 µM
Total serum fatty acid concentration ([1]; Month 6, 2h postprandial): 24 ± 5 µM
Serum hexosylceramide concentration resulting in erythrocyte sedimentation rates lower than 15 mm/hr (threshold effect) [4]: greater than 0.11 uM

CCCCCCCCCCCCCCCCCCCCCCCC(=O)O [C24:0, lignoceric acid]
concentration at 0 month ([1]; serum, oral): 18 ± 3 µM
concentration at 1 month ([1]; serum, oral): 17 ± 3 µM
concentration at 3 month ([1]; serum, oral): 18 ± 3 µM
concentration at 6 month ([1]; serum, oral): 18 ± 3 µM

CCCCCCCCCCCCCCCCCCCCCCCCCC(=O)O [C26:0]
Total serum fatty acid concentration [1, 5]: 1.0 ± 0.1 µM
Total serum fatty acid concentration ([1]; Month 1, 2h postprandial): 0.8 ± 0.1 µM
Total serum fatty acid concentration ([1]; Month 3, 2h postprandial): 0.9 ± 0.1 µM
Total serum fatty acid concentration ([1]; Month 6, 2h postprandial): 0.9 ± 0.1 µM
